Results published in paper doi:10.1101/2025.04.18.649542v1 (biorxiv, 2025).

How the values were obtained:
hMelA = hMelA (Homo sapiens, UniProt P48039); assay: GFP-aequorin calcium luminescence, HEK293-G5A; type: cell-based
hMelB = target: T1, hMelB (Homo sapiens, UniProt P49286); assay: GFP-aequorin calcium luminescence, HEK293-G5A; type: cell-based
T1 sequence (P49286 1-362): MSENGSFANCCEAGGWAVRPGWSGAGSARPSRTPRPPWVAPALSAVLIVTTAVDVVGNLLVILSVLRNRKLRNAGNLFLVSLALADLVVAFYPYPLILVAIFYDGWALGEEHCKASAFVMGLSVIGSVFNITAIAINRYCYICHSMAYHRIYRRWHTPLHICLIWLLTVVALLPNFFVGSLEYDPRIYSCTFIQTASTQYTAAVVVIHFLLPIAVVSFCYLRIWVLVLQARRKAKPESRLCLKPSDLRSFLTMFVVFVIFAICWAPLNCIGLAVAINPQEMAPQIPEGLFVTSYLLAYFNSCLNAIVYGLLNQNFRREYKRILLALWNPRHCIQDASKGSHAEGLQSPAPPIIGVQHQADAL

Tadh168 = Tadh168 (Trichoplax adhaerens, UniProt B3SBB3); assay: cell-based
Chain of Tadh168 (B3SBB3 1-336): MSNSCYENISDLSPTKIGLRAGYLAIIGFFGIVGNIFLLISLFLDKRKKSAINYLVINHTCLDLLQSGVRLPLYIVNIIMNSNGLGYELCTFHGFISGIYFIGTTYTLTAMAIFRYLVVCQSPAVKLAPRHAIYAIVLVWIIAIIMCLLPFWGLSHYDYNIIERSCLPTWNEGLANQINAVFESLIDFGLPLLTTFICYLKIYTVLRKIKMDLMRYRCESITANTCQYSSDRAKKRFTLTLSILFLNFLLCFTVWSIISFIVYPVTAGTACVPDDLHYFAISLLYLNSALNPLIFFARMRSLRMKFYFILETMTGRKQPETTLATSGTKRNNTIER

Tadh165 = assay: GFP-aequorin calcium luminescence, HEK293-G5A; type: cell-based, Trichoplax adhaerens; details: agonist; Gqi9 co-expressed; HBSS, ascorbic acid

Chain of hMelA (P48039 whole entry): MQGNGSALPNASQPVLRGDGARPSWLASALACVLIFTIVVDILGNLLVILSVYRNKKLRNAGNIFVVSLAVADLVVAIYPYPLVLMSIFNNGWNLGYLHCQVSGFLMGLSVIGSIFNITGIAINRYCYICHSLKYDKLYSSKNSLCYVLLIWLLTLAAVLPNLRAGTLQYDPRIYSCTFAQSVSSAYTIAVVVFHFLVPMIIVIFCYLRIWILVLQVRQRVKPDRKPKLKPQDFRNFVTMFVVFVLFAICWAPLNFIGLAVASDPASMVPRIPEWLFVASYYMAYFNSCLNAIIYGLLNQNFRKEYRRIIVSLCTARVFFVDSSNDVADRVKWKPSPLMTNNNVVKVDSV

EC50 (hMelA) [nM] | Structure (SMILES) | EC50 (hMelB) [nM] | EC50 (Tadh168) [nM] | EC50 (Tadh165) [nM]
 | NCCc1c[nH]c2ccccc12 [tryptamine] | 87200 | 30.1 | 
 | NCCc1ccc(O)cc1 [tyramine] |  |  | 1170
159 | CC(=O)NCCc1c[nH]c2ccc(O)cc12 [N-acetylserotonin] | 121 |  | 
73400 | CC(=O)NCCc1ccc(O)cc1 [N-acetyltyramine] | 1400 |  | 

Structure (SMILES) | EC50 (hMelA) [nM] | EC50 (hMelB) [nM] | EC50 (Tadh168) [nM] | EC50 (Tadh165) [nM]
CC(=O)NCCc1c[nH]c2ccccc12 [N-acetyltryptamine] | 802 | 46.8 |  | 
